Our source for the EC50 values is patent US5840721A, “Imidazole derivatives as MDR modulators” (Ontogen Corporation, priority 1997, dated 1998).

In one experiment the test system is CEM/VLB1000 cell line. The experiment in a line: Cytotoxicity potentiation: enhancement of vinblastine cytotoxicity in MDR cell line (alamar blue). Type of experiment: cell-based, human. As to conditions: Homo sapiens, midpoint of minimum and maximum cytotoxicity induced by 3-5 μg/mL vinblastine and compound, 48 hours incubation, alamar blue 24 hours, read-out: Cytotocicity Potentiation (EC50). The method, then: Multidrug-resistant cell lines are easily obtainable for in vitro determination of drug sensitization by compounds of the present invention. In vitro potentiation of antineoplastic cytotoxicity by the imidazole derivatives of the present invention was measured in both CEM/VLB1000 and SK/VLB1000 cell lines. The multidrug resistant cell lines were obtained from Dr. Victor Ling, Ontario Cancer Institute, Toronto, Canada. The CEM/VLB 1000 cell line was maintained as a suspension in minimum essential medium supplemented with 10% fetal bovine serum in a humidied atmosphere of 95% air and 5% CO2 while the SK/VLB 1000 cell line was maintained as adherent cells using the identical medium conditions as the CEM cells. The CEM/VLB 1000 cells were seeded at a density of 5×10^4 cells/well in a 96 well microtiter plate while the SK/VLB 1000 cell line was seeded at a density of 2,500 cells/well after trypsinization.
In general terms: Resazurin is reduced to fluorescent resorufin, in cell work by metabolically active cells.
By EC50 is commonly meant the concentration needed to bring the measured effect to its halfway point. Take `CNc1ccc(-c2[nH]c(-c3ccc(/C=C/C(=O)OC)cc3)nc2-c2ccc(N(CCOC)CCOC)cc2)cc1` [Example 69, 2-(trans-2-methoxycarbonyl-ethenylphenyl)-4-[4-N,N-di(2methoxyethyl)aminophenyl]-5-(4-N-methylaminophenyl) imidazole]: the EC50 came out at 330 nM.

Turning to `CNc1ccc(-c2[nH]c(-c3ccc(/C=C/C(=O)OC)cc3)nc2-c2ccc(-n3ccnc3)cc2)cc1` [Example 70, 2-(trans-2-methoxycarbonyl-ethenylphenyl)-4-[4-(1-imidazolyl)phenyl]-5(4-N-methylaminophenyl) imidazole], the 50% effective concentration (EC50) turned out to be 500 nM.

In the case of `COC(=O)/C=C/c1ccc(-c2nc(-c3ccc(N4CCOCC4)cc3)c(-c3ccc(N4CCOCC4)cc3)[nH]2)cc1` [Example 71, 2-(trans-2-methoxycarbonyl-ethenylphenyl)-4,5-bis (4-N-morpholinophenyl) imidazole], the concentration giving a half-maximal response (EC50) turned out to be 370 nM.

For `COC(=O)/C=C/c1ccc(-c2nc(-c3ccc(N(C)C)cc3)c(-c3ccc(N4CCOCC4)cc3)[nH]2)cc1` [Example 72, 2-(trans-2-methoxycarbonyl-ethenylphenyl)-4-(4-N-dimethylaminophenyl)-5-(4-N-morpholinophenyl) imidazole], the concentration for a half-maximal effect (EC50) came to 320 nM.

Consider `CNc1ccc(-c2nc(-c3ccc(/C=C/C(=O)OC)cc3)[nH]c2-c2ccc(N3CCOCC3)cc2)cc1` [Example 73, 2-(trans-2-methoxycarbonyl-ethenylphenyl)-4-(4-N-methylaminophenyl)5-(4-N-morpholinophenyl) imidazole], for which the EC50 came out at 340 nM.

Take `CCOC/C=C/c1ccc(-c2nc(-c3ccc(N(C)C)cc3)c(-c3ccc(NC)cc3)[nH]2)cc1` [Example 76, 2-[4-(3-ethoxy-trans-1-propen-1-yl)phenyl]-4-(4-N-dimethylaminophenyl)-5-(4-N-methylaminophenyl) imnidazole]: the EC50 is 110 nM.

With `CN(C)C/C=C/c1ccc(-c2nc(-c3ccc(N(C)C)cc3)c(-c3ccc(N(C)C)cc3)[nH]2)cc1` [Example 83, 2-[4-(3-N,N-dimethylamino-trans-1-propen-1-yl)phenyl]-4,5-bis (4-N,N-dimethylaminophenyl) imidazole], the EC50 is 1300 nM.

As to `COCCOC/C=C/c1ccc(-c2nc(-c3ccc(N(C)C)cc3)c(-c3ccc(N(C)C)cc3)[nH]2)cc1` [Example 84, 2-{4-[3-(2-methoxy-ethoxy)-trans-1-propen-1-yl]phenyl}-4,5-bis (4-N,N-dimethylaminophenyl) imidazole], the EC50 was 90 nM.

Turning to `CCCCOC/C=C/c1ccc(-c2nc(-c3ccc(N(C)C)cc3)c(-c3ccc(N(C)C)cc3)[nH]2)cc1` [Example 85, 2-[4-(3-butoxy-trans-1-propen-1-yl)phenyl]-4,5-bis (4-N,N-dimethylaminophenyl) imidazole], the EC50 is 110 nM.

`CCOC/C=C/c1ccc(-c2nc(-c3ccc(N(CC)CC)cc3)c(-c3ccc(N(CC)CC)cc3)[nH]2)cc1` [Example 86, 2-[4-(3-ethoxy-trans-1-propen-1-yl)phenyl]-4,5-bis (4-N,N-diethylaminophenyl) imidazole]: the half-maximal effective concentration (EC50) came to 260 nM.

Take `CCOC/C=C/c1ccc(-c2nc(-c3ccc(N(CC)CC)cc3)c(-c3ccc(NC)cc3)[nH]2)cc1` [Example 87, 2-[4-(3-ethoxy-trans-1-propen-1-yl)phenyl]-4-(4-N,N-diethylaminophenyl)5-(4-N-methylaminophenyl) imidazole]: the EC50 stood at 60 nM.

`COC/C=C/c1ccc(-c2nc(-c3ccc(N4CCCC4)cc3)c(-c3ccc(N4CCCC4)cc3)[nH]2)cc1` [Example 88, 2-[4-(3-methoxy-trans-1-propen-1-yl)phenyl]-4,5-bis (4-pyrrolidinophenyl) imidazole]: the half-maximal effective concentration (EC50) came out at 260 nM.

In the case of `CCOC/C=C/c1ccc(-c2nc(-c3ccc(N4CCCC4)cc3)c(-c3ccc(N4CCCC4)cc3)[nH]2)cc1` [Example 89, 2-[4-(3-ethoxy-trans-1-propen-1-yl)phenyl]-4,5-bis (4-pyrrolidinophenyl) imidazole], the 50% effective concentration (EC50) was found to be 240 nM.

Take `CCOC/C=C/c1ccc(-c2nc(-c3ccc(N(C)C)cc3)c(-c3ccc(N4CCCC4)cc3)[nH]2)cc1` [Example 90, 2-[4-(3-ethoxy-trans-1-propen-1-yl)phenyl]-4-(4-N-dimethylaminophenyl)-5-(4-pyrrolidinophenyl) imidazole]: the EC50 worked out at 120 nM.

As to `CCOC/C=C/c1ccc(-c2nc(-c3ccc(NC)cc3)c(-c3ccc(N4CCCC4)cc3)[nH]2)cc1` [Example 91, 2-[4-(3-ethoxy-trans-1-propen-1-yl)phenyl]-4-(4-N-methylaminophenyl)-5(4-pyrrolidinophenyl) imidazole], the EC50 was determined as 110 nM.

`CCOC/C=C/c1ccc(-c2nc(-c3ccc(N4CCOCC4)cc3)c(-c3ccc(N4CCOCC4)cc3)[nH]2)cc1` [Example 92, 2-[4-(3-ethoxy-trans-1-propen-1-yl)phenyl]-4,5-bis (4-N-morpholinophenyl) imidazole]: the EC50 was 220 nM.

As for `CCOC/C=C/c1ccc(-c2nc(-c3ccc(N(C)C)cc3)c(-c3ccc(N4CCOCC4)cc3)[nH]2)cc1` [Example 93, 2-[4-(3-ethoxy-trans-1-propen-1-yl)phenyl]-4-(4-N-dimethylaminophenyl)-5-(4-N-morpholinophenyl) imidazole], the EC50 came out at 150 nM.

With `CCOC/C=C/c1ccc(-c2nc(-c3ccc(NC)cc3)c(-c3ccc(N4CCOCC4)cc3)[nH]2)cc1` [Example 94, 2-[4-(3-ethoxy-trans-1-propen-1-yl)phenyl]-4-(4-N-methylaminophenyl) -5(4-N-morpholinophenyl) imidazole], the EC50 came out at 250 nM.

For `CCOC/C=C/c1ccc(-c2nc(-c3ccc(NC(C)C)cc3)c(-c3ccc(NC)cc3)[nH]2)cc1` [Example 95, 2-[4-(3-ethoxy-trans-1-propen-1-yl)phenyl]-4-(4-N-methylaminophenyl)-5-(4-N-isopropylaminophenyl) imidazole], the EC50 came out at 50 nM.

Regarding `CN(C)c1ccc(-c2nc(-c3ccc(/C=C/S(C)(=O)=O)cc3)[nH]c2-c2ccc(N(C)C)cc2)cc1` [Example 96, 2-[4-trans-(2-methanesulfonyl-ethenyl)-phenyl]-4,5-bis (4-N,N-dimethylaminophenyl) imidazole], the EC50 amounted to 730 nM.

As to `CN(C)c1ccc(-c2nc(-c3ccc(N4CCOCC4)cc3)[nH]c2-c2ccc(N(C)C)cc2)cc1` [Example 97, 2-(4-N-morpholinophenyl)-4,5-bis (4-N,N-dimnethylaminophenyl) imidazole], the 50% effective concentration (EC50) turned out to be 190 nM.

For the molecule `CCOC(=O)c1cc(-c2ccc(-c3nc(-c4ccc(N(C)C)cc4)c(-c4ccc(N(C)C)cc4)[nH]3)cc2)no1` [Example 98, 2-[4-(5-ethylcarboxyisoxazol-3-yl)-phenyl]-4,5-bis (4-N,N-dimethylamainophenyl) imidazole], the EC50 is 600 nM.

On to `CCN(CC)Cc1ccc(-c2[nH]c(-c3ccc(/C=C/C(=O)OC)cc3)nc2-c2ccc(C)cc2)cc1` [Example 99, 2-[4-trans-(2-methoxycarbonyl-ethenyl)phenyl]-4-(p-tolyl)-5-(4-N,N-diethylaminomethylphenyl) imidazole], for which the concentration giving a half-maximal response (EC50) worked out at 290 nM.

As for `CCN(CC)Cc1ccc(-c2nc(-c3ccc(/C=C/C(=O)OC)cc3)[nH]c2-c2ccc(CN(CC)CC)cc2)cc1` [Example 100, 2-[4-trans-(2-methoxycarbonyl-ethenyl)phenyl]-4,5-bis (4-N,N-diethylaminomethylphenyl) imidazole], the half-maximal effective concentration (EC50) is 3400 nM.

For the molecule `CCOC/C=C/c1ccc(-c2nc(-c3ccc(OC)cc3)c(-c3ccc(OC)cc3)[nH]2)cc1` [Example 102, 2-[4-(3-ethoxy-trans-1-propen-1-yl)phenyl]-4,5-bis (4-dimethoxyphenyl) imidazole], the EC50 was 350 nM.

Take `CCOC/C=C/c1ccc(-c2nc(-c3ccc(OCC)cc3)c(-c3ccc(OCC)cc3)[nH]2)cc1` [Example 103, 2-[4-(3-ethoxy-trans-1-propen-1-yl)phenyl]-4,5-bis (4-diethoxyphenyl) imidazole]: the 50% effective concentration (EC50) came to 240 nM.

With `CCOC/C=C/c1ccc(-c2nc(-c3ccc(OC(C)C)cc3)c(-c3ccc(OC(C)C)cc3)[nH]2)cc1` [Example 104, 2-[4-(3-ethoxy-trans-1-propen-1-yl)phenyl]-4,5-bis (4diisopropyloxyphenyl) imidazole], the EC50 was determined as 250 nM.

Still in this experiment, the particulars now being: midpoint of minimum and maximum cytotoxicity induced by 3-5 μg/mL vinblastine and compound, 48 hours incubation, alamar blue 24 hours, read-out: Cytotocicity Potentiation (EC50).
For the molecule `CNc1ccc(-c2[nH]c(-c3ccc(/C=C/COc4ccccc4)cc3)nc2-c2ccc(N(C)C)cc2)cc1` [Example 78, 2-[4-(3-phenoxy-trans-1-propen-1-yl)phenyl]-4-(4-N-dimethylaminophenyl)-5-(4-N-methylaminopheny) imidazole], the EC50 worked out at 450 nM.

Take `CNc1ccc(-c2[nH]c(-c3ccc(/C=C/COc4ccc(OC)c(OC)c4)cc3)nc2-c2ccc(N(C)C)cc2)cc1` [Example 79, 2-{4-[3-(3,4-dimethoxy-phenoxy)-trans-1-propen-1-yl]phenyl}-4-(4-N-dimethylaminophenyl)-5-(4-N-methylaminopheny) imidazole]: the concentration for a half-maximal effect (EC50) amounted to 1210 nM.

For `CCN(CC)C/C=C/c1ccc(-c2nc(-c3ccc(N(C)C)cc3)c(-c3ccc(N(C)C)cc3)[nH]2)cc1` [Example 80, 2-[4-(3-N,N-diethylamino-trans-1-propen-1-yl)phenyl]-4,5-bis (4-N,N-dimethylaminophenyl) imidazole], the EC50 came to 880 nM.
